Source: patent US20240180908A1, “TREATMENT OF KIDNEY DISEASES” (ACLIPSE ONE, INC., priority 2021, published 2024)

What was measured:
[1] = PAN-injury podocyte viability assay (Cell Titer-Glo); type: cell-based, human; conditions: human, no test compound, read-out: podocyte viability compared with untreated cells
Source text: (§1) Cell Culture. The human podocyte cell line (CIHP-1) is a […] isolated from human kidney. Podocytes are highly specialized, terminally differentiated cells with a complex cellular structure. They are a critical component of glomerular filtration. Cell cycle control, growth arrest and differentiation are key to the in vivo biology of podocytes. The conditionally immortalized podocyte cell line allows an in vitro process of maturation analogous to the development and maturation of podocytes in vivo. […] These include the novel podocyte proteins nephrin, podocin, CD2AP and synaptopodin. This robust cell line is extensively characterized and validated.
(§2) The growth medium of CIHP-1 cells (Ximbio) was RPMI 1640 with 10% fetal bovine serum (FBS), 1-fold of ITS (insulin-transferrin-selenium), and 1-fold Pen/Strep. The culture condition was 33° C. with 5% CO2. The cell detachment solution was Accutase® for 5 min at 33° C. The cell line passage ration was 1:3 every 3 or 4 days.
(§3) PAN-injury podocyte viability assay. Differentiated podocytes were either pretreated with dimethyl sulfoxide (DMSO) as vehicle, lobeglitazone, pioglitazone, rosiglitazone, or dexamethasone followed by puromycin aminonucleoside (PAN) treatment (5 μg/ml). Viability assays were performed after 3 or 5 days of treatments. […] For compound treatment, compounds were diluted to 20, 2, 0.2, 0.02 and 0.002 mM with DMSO. A volume of 1.8 μL of compounds was taken to 358.2 μL of culture medium and mixed. Media from plates were aspirated. A volume of 100 μL compound-added medium was added to each plate. Plates were placed in the incubator for 4 hours.
(§4) On day 0, CIHP-1 cells were seeded into two 96-well white plates using 5000 cell/well for 3 days (plate 1) or 2500 cell/well for 5 days (plate 2) treatment.
(§5) For compound treatment on Day 1, culture medium was aspirated. For each cell plate, 100 μl/well fresh medium with compounds was added for 4 hour. DMSO was used as control. After compound treatment for 4 hours, PAN was added to a final concentration of 5 μg/ml. No PAN treatment was used for the negative control. There was no medium change for the whole process.
(§6) On Day 4, for the first plate, Cell Titer-Glo (CTG) assay was used by adding 60 μl of CTG reagent into each well of the first plate, incubating at room temperature with shaking for 20 min, and then reading by the EnVision plate reader.
(§7) On Day 6, for the second plate, CTG assay was used by adding 60 μl of CTG reagent into each well of the second plate, incubating at RT with shaking for 20 min, and then reading by the EnVision plate reader.

[2] = tested on: human podocyte cell line (CIHP-1); assay: as above; type: cell-based; conditions: for CIHP-1 proliferation by CTG, percentage compared to DMSO control (without PAN): 4 h pretreatment
Source text: as §1, §2, §3, §4, §5, §6, §7

[3] = compound 0.01 μM, PAN 5 μg/ml 3-day treatment
[4] = compound 0.01 μM, PAN 5 μg/ml 5-day treatment
[5] = compound 0.1 μM, PAN 5 μg/ml 3-day treatment
[6] = compound 0.1 μM, PAN 5 μg/ml 5-day treatment
[7] = compound 1 μM, PAN 5 μg/ml 3-day treatment
[8] = compound 1 μM, PAN 5 μg/ml 5-day treatment
[9] = compound 10 μM, PAN 5 μg/ml 3-day treatment
[10] = compound 10 μM, PAN 5 μg/ml 5-day treatment
[11] = compound 100 μM, PAN 5 μg/ml 3-day treatment
[12] = compound 100 μM, PAN 5 μg/ml 5-day treatment

Compound | viability at 3 days, 5 μg/ml ([1]; 5 μg/ml PAN for 3 days) [%] | viability at 5 days, 5 μg/ml ([1]; 5 μg/ml PAN for 5 days) [%] | CIHP-1 proliferation by CTG, percentage compared to DMSO control (without PAN) [2, 3] [%] | CIHP-1 proliferation by CTG, percentage compared to DMSO control (without PAN) [2, 4] [%] | CIHP-1 proliferation by CTG, percentage compared to DMSO control (without PAN) [2, 5] [%] | CIHP-1 proliferation by CTG, percentage compared to DMSO control (without PAN) [2, 6] [%] | CIHP-1 proliferation by CTG, percentage compared to DMSO control (without PAN) [2, 7] [%] | CIHP-1 proliferation by CTG, percentage compared to DMSO control (without PAN) [2, 8] [%] | CIHP-1 proliferation by CTG, percentage compared to DMSO control (without PAN) [2, 9] [%] | CIHP-1 proliferation by CTG, percentage compared to DMSO control (without PAN) [2, 10] [%] | CIHP-1 proliferation by CTG, percentage compared to DMSO control (without PAN) [2, 11] [%] | CIHP-1 proliferation by CTG, percentage compared to DMSO control (without PAN) [2, 12] [%] | protection to PAN-injured podocytes ([2]; 0.01 to 100 μM, 3 days of PAN exposure) | improvement of podocyte viability ([2]; 0.01 to 100 μM, after 5 days of PAN injury) | concentration at which toxicity to the podocyte cells was observed ([2]; human, 3 days) [µM]
CN(C)c1ncnc2c1ncn2[C@@H]1O[C@H](CO)[C@@H](N)[C@H]1O [PAN, puromycin aminonucleoside] | 70 to 80 | 30 to 40 | – | – | – | – | – | – | – | – | – | – | – | – | –
CN(CCOc1ccc(CC2SC(=O)NC2=O)cc1)c1ccccn1 (centres unmarked) [rosiglitazone] | – | – | 72.4 | 32.6 | 76.0 | 32.7 | 74.5 | 33.6 | 69.2 | 29.1 | 69.6 | 15.0 | – | – | –
COc1ccc(Oc2cc(N(C)CCOc3ccc(CC4SC(=O)NC4=O)cc3)ncn2)cc1 (centres unmarked) [lobeglitazone, 5-(4-(2-((6-(4-Methoxyphenoxy)pyrimidin-4-yl)(methyl)amino)ethoxy)benzyl) thiazolidine-2,4-dione] | – | – | 102.7 | 31.0 | 99.9 | 33.0 | 103.3 | 32.8 | 105 | 33.7 | 19.9 | 6.2 | significant protection | did not show significant improvement | 100
CCc1ccc(CCOc2ccc(CC3SC(=O)NC3=O)cc2)nc1 (centres unmarked) [pioglitazone] | – | – | 102.4 | 35.2 | 101.3 | 38.3 | 97.3 | 30.0 | 94.3 | 33.4 | 90.9 | 22.4 | – | – | –
C[C@@H]1C[C@H]2[C@@H]3CCC4=CC(=O)C=C[C@]4(C)[C@@]3(F)[C@@H](O)C[C@]2(C)[C@@]1(O)C(=O)CO [dexamethasone] | – | – | – | – | 79.9 | 34.2 | 73.9 | 34.9 | 74.7 | 33.6 | – | – | – | – | –
